# pIC50: −log10 of the molar value. Where two headings read alike, the source gives them in different places.
# What was measured:
# [1] = tested on: human non-small cell lung cancer cells NCI-H358 with KRas G12C mutation; experiment: NCI-H358 cell proliferation, CellTiter-Glo Luminescent Cell Viability Assay; assay type: cell-based; details: for inhibition at 1 µM: 1 μM compound, read-out: Inhibition rate % (1 μM)
# Source text: This assay verified the inhibitory activity of the compounds of the present disclosure on the proliferation of human non-small cell lung cancer cells NCI-H358 with KRas G12C mutation by using Promega's CellTiter-Glo® Luminescent Cell Viability Assay kit.
# [Test materials]: NCI-H358 cell line (Cell Resource Center, IBMS, CAMS/PUMC, Item number: 3111C0001CCC000470), 96-well transparent flat-bottomed black-walled cell culture plate (Greiner Bio one, Cat #655096), RPMI-1640 Medium (GE, Cat #SH30809.01), Fetal Bovine Serum FBS (Thermo Fisher, Cat #10099-141), CellTiter-Glo® Luminescent Cell Viability Assay Kit (Promega, Cat #G7573), PBS (Solarbio, Cat #P1020), Trypsin (Thermo Fisher, Cat #25200072), DMSO (Sigma, Cat #D2650), Methyl cellulose (SIGMA, Cat #9004-67-5).
# [Experimental procedure]: 180 μL of cell suspension (RPMI1640 solution with 10% FBS and 1% methyl cellulose) was charged to a 96-well cell culture plate at a density of 1500 cells/well. A control group containing no cells, no compounds and only 3D complete medium (RPMI 1640 solution with 1! Methyl cellulose and 10% FBS) (i.e. culture medium control) and a control group containing no compounds but cells (i.e. cell control) were set. AMG510 or the following reference compounds were used as positive controls. The cell plate was placed in a cell incubator overnight. A 10-fold drug solution (RPMI1640 solution with 10% FBS and 1% DMSO) was prepared at a concentration of 10 μM, and 20 μL of this solution was added to each well of the 96-well plate seeded with cells, so that the final concentration of the compounds in each well was 1 μM, and the DMSO concentration […] replicate wells were set up for each compound. The solutions of AMG510 or the following reference compounds were prepared in the same way and added to the positive control wells. The cell plate was placed in a cell incubator and cultured for 120 h. For endpoint detection, the CellTiter-Glo reagent was melted, and the cell plate was moved to room temperature to equilibrate for 30 minutes, added with 100 µL of CellTiter-Glo to each well, and shaken on an orbital shaker for 5 minutes to fully lyse the cells. The plate was kept at room temperature for 20 minutes to stabilize the luminescence signal, and the luminescence value of each well was full wavelength scanned with a multi-functional microplate reader (Molecular Devices, Spectramax M3 microplate reader).
# [Test samples] The compounds of Examples 1-39, and reference compound A
# [Data Analysis] The following formula was used to calculate the cell inhibition rate under the action of each concentration of the compounds:
# Inhibition rate %=[1−(LumDrug to be tested−LumCulture medium control)/(LumCell control−LUMCulture medium control)]×100%
# IC50 values were calculated using GraphPad Prism 7.0 software, nonlinear Sigmoidal regression was used to fit the data to obtain a dose-response curve.
# [2] = Cassette pharmacokinetic experiment in rats (IV); assay type: in vivo; details: rat, plasma, 1 mg/kg, male SD rats, tail vein IV, 1 mg/mL each compound at 1 mL/kg
# Source text: 2.1 Pharmacokinetic Properties of Some Compounds of the Present Disclosure Evaluated by Cassette Pharmacokinetic Experiments in Rats.
# [Test materials]: Male SD rats, age: 6-8 weeks, body weight 220-250 g, purchased from Zhaoyan (Suzhou) New Drug Research Center Co., Ltd.; Tolbutamide (Aladdin, Cat #H1401054); Sulfobutyl-(Captisol, Shandong Binzhou Zhiyuan Biological Technology Co., Ltd, Cat #20191013); Propylene glycol (15)-stearate (Solutol, Meilun Bio, Cat #50206A); DMSO (Vetec Company, Cat #WXBD0293V); acetonitrile (Sigma-Aldrich, Cat #WXBD1744V); Methanol (Sigma-Aldrich, Cat #WXBD2831V).
# [Experimental procedure]: The compound combination was prepared in a solvent of 5% DMSO/10% Solutol/85% (20% Captisol), and the final concentration of each compound was 1 mg/mL. The SD rats were treated with the compound preparation in 1 mL/kg by tail vein IV injection, and blood samples were collected at the time points of 5 min, 15 min, 30 min, 1 h, 2 h, 4 h, 8 h, and 24 h via external jugular vein puncture, centrifuged at low temperature for 20 minutes to collect plasma samples, which were stored at −80° C. until analysis.
# [Sample analysis]: Establishing LC-MS/MS compound analysis method
# Standard curve preparation: 20 μL of lmg/mL DMSO stock solution for each compound was aspirated and transferred to […] of 50% methanol working solution, and the resulting solution was serially diluted to obtain a standard curve working solution with concentrations of 20000, 10000, 5000, 1000, 500, 100, 50, 20 and […]. Then 5 µL of this standard curve working solution was mixed with 45 μL rat blank plasma to give a standard curve with concentrations of 2000, 1000, 500, 100, 50, 10, 2 and 1 ng/mL for quantification of unknown samples.
# Sample pretreatment: 50 μL of unknown plasma sample or standard curve sample was mixed with 250 μL of acetonitrile containing internal standard as a precipitant. The plasma protein was precipitated, extracted for test compounds, and centrifuged at low temperature for 20 minutes. The supernatant was taken, mixed with 0.1% formic acid aqueous solution, and 5 μL of the resulting solution was aspirated for blood concentration analysis.
# [Data processing]: A standard curve was plotted using mass spectrometry software, to quantify unknown samples, and pharmacokinetic parameters are calculated by Winnonlin 8.2 using the drug concentration of unknown samples at each time point.
compound,measurement,setting,value
"C=CC(=O)N1CCN(c2c(C#N)c(-c3cccc(CN(C)C)c3)nc3c(F)c(-c4ccc(F)c5sc(N)nc45)c(Cl)cc23)C[C@H]1C [Example 6, 4-((R)-4-acryloyl-3-methylpiperazin-1-yl)-7-(2-amino-7-fluorobenzo[d]thiazol-4-yl)-6-chloro-2-(3-((dimethylamino)methyl)phenyl)-8-fluoroquinoline-3-carbonitrile]",inhibition at 1 µM,[1]; 120 h,95%
same,pIC50,"[1]; 120 h, read-out: IC50",7.77
same,pIC50,[1]; read-out: IC50 value,> 7.70
"C=CC(=O)N1CCN(c2c(C#N)c(-c3ccnn3CCN(C)C)nc3c(F)c(-c4ccc(F)c5sc(N)nc45)c(Cl)cc23)CC1 [Example 4, 4-(4-Acryloylpiperazin-1-yl)-7-(2-amino-7-fluorobenzo[d]thiazol-4-yl)-6-chloro-2-(1-(2-(dimethylamino)ethyl)-1H-pyrazol-5-yl)-8-fluoroquinoline-3-carbonitrile]",inhibition at 1 µM,[1]; 120 h,94.8%
same,pIC50,"[1]; 120 h, read-out: IC50",7.28
C=CC(=O)N1CCN(c2c(C#N)c(C)nc3c(F)c(-c4ccc(F)c5sc(N)nc45)c(Cl)cc23)C[C@@H]1CC#N [Example 32],pIC50,[1]; read-out: IC50 value,> 7.30
"C=CC(=O)N1CCN(c2c(C#N)c(N)nc3c(F)c(-c4ccc(F)c5sc(N)nc45)c(Cl)cc23)CC1 [Example 20, 4-(4-Acryloylpiperazin-1-yl)-2-amino-7-(2-amino-7-fluorobenzo[d]thiazol-4-yl)-6-chloro-8-fluoroquinoline-3-carbonitrile]",pIC50,[1]; read-out: IC50 value,> 7.30
"C=CC(=O)N1CCN(c2c(C#N)cnc3c(F)c(-c4c(C)ccc5[nH]ncc45)c(Cl)cc23)CC1 [Ref. Comp. B, reference compound]",pIC50,"[1]; 120 h, read-out: IC50",6.46
"C=CC(=O)N1CCN(c2c(C#N)c(-c3cn(C)nc3C)nc3c(F)c(-c4ccc(F)c5sc(N)nc45)c(Cl)cc23)CC1 [Example 15, 4-(4-Acryloylpiperazin-1-yl)-7-(2-amino-7-fluorobenzo[d]thiazol-4-yl)-6-chloro-2-(1,3-dimethyl-1H-pyrazol-4-yl)-8-fluoroquinoline-3-carbonitrile]",AUC(0-t),[2],717 ng·h/mL
same,clearance,[2],23.3 mL/min/kg
same,half-life,[2],1.03 h
"C=CC(=O)N1CCN(c2c(C#N)c(-c3cccc(C(C)N(C)C)c3)nc3c(F)c(-c4ccc(F)c5sc(N)nc45)c(Cl)cc23)CC1 (stereo not drawn) [Example 5, 4-(4-Acryloylpiperazin-1-yl)-7-(2-amino-7-fluorobenzo[d]thiazol-4-yl)-6-chloro-2-(3-(1-(dimethylamino)ethyl)phenyl)-8-fluoroquinoline-3-carbonitrile]",inhibition at 1 µM,[1]; 120 h,94.9%
same,pIC50,"[1]; 120 h, read-out: IC50",8.15
same,pIC50,[1]; read-out: IC50 value,> 7.70
"C=CC(=O)N1CCN(c2c(C#N)c(N)nc3c(F)c(-c4cccc5sc(N)nc45)c(Cl)cc23)CC1 [Example 33, 4-(4-Acryloylpiperazin-1-yl)-2-amino-7-(2-aminobenzo[d]thiazol-4-yl)-6-chloro-8-fluoroquinoline-3-carbonitrile]",pIC50,[1]; read-out: IC50 value,> 7.30
"C=CC(=O)N1CCN(c2c(C#N)cnc3c(OC)c(-c4ccc(F)c5sc(N)nc45)c(Cl)cc23)CC1 [Example 39, 4-(4-Acryloylpiperazin-1-yl)-7-(2-amino-7-fluorobenzo[d]thiazol-4-yl)-6-chloro-8-methoxy quinoline-3-carbonitrile]",pIC50,[1]; read-out: IC50 value,> 7.70
"C=CC(=O)N1CCN(c2c(C#N)c(-c3cccc(CN(C)C)c3)nc3c(F)c(-c4ccc(F)c5sc(N)nc45)c(Cl)cc23)CC1 [Example 3, 4-(4-Acryloylpiperazin-1-yl)-7-(2-amino-7-fluorobenzo[d]thiazol-4-yl)-6-chloro-2-(3-((dimethylamino)methyl)phenyl)-8-fluoroquinoline-3-carbonitrile]",inhibition at 1 µM,[1]; 120 h,97.7%
same,pIC50,"[1]; 120 h, read-out: IC50",8.05
same,pIC50,[1]; read-out: IC50 value,> 7.70
"C=C(F)C(=O)N1CCN(c2c(C#N)cnc3c(F)c(-c4ccc(F)c5sc(N)nc45)c(Cl)cc23)CC1 [Example 16, 7-(2-Amino-7-fluorobenzo[d]thiazol-4-yl)-6-chloro-8-fluoro-4-(4-(2-fluoroaryloxy)piperazin-1-yl)quinoline-3-carbonitrile]",AUC(0-t),[2],2790 ng·h/mL
same,clearance,[2],5.93 mL/min/kg
same,half-life,[2],3.5 h
"C=CC(=O)N1CCN(c2c(C#N)c(N)nc3c(F)c(-c4c(F)ccc5sc(N)nc45)c(Cl)cc23)CC1 [Example 34, 4-(4-Acryloylpiperazin-1-yl)-2-amino-7-(2-amino-5-fluorobenzo[d]thiazol-4-yl)-6-chloro-8-fluoroquinoline-3-carbonitrile]",pIC50,[1]; read-out: IC50 value,> 7.30
"C=CC(=O)N1CCN(c2c(C#N)c(OC)nc3c(F)c(-c4ccc(F)c5sc(N)nc45)c(Cl)cc23)CC1 [Example 13, 4-(4-Acryloylpiperazin-1-yl)-7-(2-amino-7-fluorobenzo[d]thiazol-4-yl)-6-chloro-8-fluoro-2-methoxyquinoline-3-carbonitrile]",AUC(0-t),[2],1950 ng·h/mL
same,clearance,[2],8.58 mL/min/kg
same,half-life,[2],1.37 h
"C=CC(=O)N1CCN(c2c(C#N)c(C)nc3c(F)c(-c4ccc(F)c5sc(N)nc45)c(Cl)cc23)CC1 [Example 17, 4-(4-Acryloylpiperazin-1-yl)-7-(2-amino-7-fluorobenzo[d]thiazol-4-yl)-6-chloro-8-fluoro-2-methylquinoline-3-carbonitrile]",pIC50,[1]; read-out: IC50 value,> 7.30
"C=CC(=O)N1CCN(c2c(C#N)c(-c3ccnn3C)nc3c(F)c(-c4ccc(F)c5sc(N)nc45)c(Cl)cc23)CC1 [Example 14, 4-(4-Acryloylpiperazin-1-yl)-7-(2-amino-7-fluorobenzo[d]thiazol-4-yl)-6-chloro-8-fluoro-2-(1-methyl-1H-pyrazol-5-yl)quinoline-3-carbonitrile]",AUC(0-t),[2],1100 ng·h/mL
same,clearance,[2],15.1 mL/min/kg
same,half-life,[2],1.58 h
"C=CC(=O)N1CCN(c2c(C#N)c(-c3ccnn3CCN(C)C)nc3c(F)c(-c4ccc(F)c5sc(N)nc45)c(Cl)cc23)C[C@H]1C [Example 7, 4-((R)-4-acryloyl-3-methylpiperazin-1-yl)-7-(2-amino-7-fluorobenzo[d]thiazol-4-yl)-6-chloro-2-(1-(2-(dimethylamino)ethyl)-1H-pyrazol-5-yl)-8-fluoroquinoline-3-carbonitrile]",inhibition at 1 µM,[1]; 120 h,90%
same,pIC50,"[1]; 120 h, read-out: IC50",6.59
"C=CC(=O)N1CCN(c2c(C#N)c(NC(C)=O)nc3c(F)c(-c4ccc(F)c5sc(N)nc45)c(Cl)cc23)CC1 [Example 37, N-(4-(4-acryloylpiperazin-1-yl)-7-(2-amino-7-fluorobenzo[d]thiazol-4-yl)-6-chloro-3-cyano-8-fluoroquinolin-2-yl)acetamide]",pIC50,[1]; read-out: IC50 value,> 7.30
